Assay results published in patent publication US9169241B2, “Quinolinyloxyphenylsulfonamides” (Max-Planck-Gesellschaft Zur Forderung der Wissenschaften …, priority 2009, dated 2015).

How the values were obtained:
[1] = system: Hs578T; assay: Cell vitality assay (ATP assay, CellTiter-Glo); assay type: cell-based; settings: Homo sapiens, Hs-578T; HS578T cell line, 72 h; Table Ib; read-out: IC50 ATP-Assay HS578T after 72 h
Procedure, shortened: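 Viability is estimated from cellular ATP after 72 h of compound treatment at 1000 cells per well. The dilution series runs 12.5, 6.25, 3.125, 1.56, 0.78, 0.39 and 0.195 μM. Half-maximal values are expressed against DMSO-treated wells.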

[2] = system: Hs578T; assay: Wound healing migration assay; assay type: cell-based; settings: Homo sapiens, Hs-578T; HS578T cell line; Table Ib
Procedure, shortened: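 Compound exposure at 12.5, 6.25 and 3.125 μM, with DMSO control, on scratch-wounded monolayers (150000 cells/24 well, overnight). Wound closure imaged by microscopy, fixed with crystal violet after 48 h or 72 h depending on cell line; IC50 is the concentration giving 50% wound size between t0 and t48/t72.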

[3] = biological target: T1, wild type AXL (wtAXL) receptor tyrosine kinase (Homo sapiens, UniProt P30530); assay: NIH-3T3-AXL cellular kinase assay (pY-AXL-ELISA); assay type: cell-based; settings: NIH-3T3-AXL (clone 22) cells, serum depleted, compounds 1 h; Table Ia
T1 construct: WtAXL cDNA was cloned into vector pLXSN(ESK) and transfected into Phoenix E packaging cells; expressed in transfected cells; host or cells: NIH3T3 N7 (mouse fibroblasts), retrovirally infected, clone 22
T1 sequence (P30530 26-894): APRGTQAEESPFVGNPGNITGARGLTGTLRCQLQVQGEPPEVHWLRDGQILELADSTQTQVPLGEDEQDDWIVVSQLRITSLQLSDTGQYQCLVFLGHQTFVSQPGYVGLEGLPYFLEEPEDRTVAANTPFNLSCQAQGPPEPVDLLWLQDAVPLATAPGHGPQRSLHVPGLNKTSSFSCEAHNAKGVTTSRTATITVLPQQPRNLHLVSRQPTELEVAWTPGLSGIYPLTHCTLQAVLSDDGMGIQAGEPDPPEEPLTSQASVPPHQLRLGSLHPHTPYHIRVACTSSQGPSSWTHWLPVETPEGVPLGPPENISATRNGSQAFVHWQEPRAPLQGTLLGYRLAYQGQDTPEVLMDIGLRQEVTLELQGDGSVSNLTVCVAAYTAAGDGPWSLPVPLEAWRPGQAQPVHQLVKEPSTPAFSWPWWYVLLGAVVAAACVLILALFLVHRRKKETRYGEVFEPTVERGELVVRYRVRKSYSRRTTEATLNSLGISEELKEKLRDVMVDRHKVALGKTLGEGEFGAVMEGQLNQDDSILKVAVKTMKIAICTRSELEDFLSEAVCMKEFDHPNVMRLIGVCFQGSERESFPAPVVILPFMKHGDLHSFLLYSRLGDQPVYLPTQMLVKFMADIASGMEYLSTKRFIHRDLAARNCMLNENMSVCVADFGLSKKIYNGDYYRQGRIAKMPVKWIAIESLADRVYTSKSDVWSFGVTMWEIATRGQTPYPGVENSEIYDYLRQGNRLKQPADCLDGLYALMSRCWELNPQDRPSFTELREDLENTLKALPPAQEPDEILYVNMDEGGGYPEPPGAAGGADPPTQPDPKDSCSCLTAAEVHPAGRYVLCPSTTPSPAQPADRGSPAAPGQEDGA
Method: WtAXL cDNA was cloned into vector pLXSN(ESK) and transfected into Phoenix E packaging cells. The viral supernatant was collected and used to infect target cells NIH3T3 N7. Monoclonal NIH3T3-AXL cell lines stably expressing wtAXL were generated by selecting retrovirally infected cells in medium containing puromycin (2 μg/ml) and subsequent clonal separation.
Serial dilutions of compounds were added, and the cells were further incubated for 1 h. Cells were washed with PBS and lysed on ice in 500 μl lysis buffer (50 mM HEPES (pH 7.5), 150 mM NaCl, 1 mM EGTA, 10% Glycerol, 1% Triton X-100, 100 mM NaF, 10 mM Na4P2O7.10H2O, 1 mM Na3VO4, 1 mM phenylmethylsulfonyl fluoride, and […]) for 15 min. The cell lysate were used for phosphotyrosine AXL enzyme-linked immunosorbant assay (pY-AXL-ELISA). […] Subsequently 96-well plates were blocked with PBS-0.05% Tween®20+10% FBS for 4 h at 37° C. Plates were washed 5 times with PBS-0.05% Tween®20 and 95 μl of lysate was transferred per well for incubation overnight at 4° C. Plates were washed 5 times with PBS-0.05% Tween®20 (Sigma, Steinheim, Germany). For detection of phosphorylated tyrosine we used homemade biotynilated 4G10-antibody (0.5 μg/ml) in PBS-0.05% Tween®20+10% FBS (100 μl/well) and incubated the 96-well plate for 2 h at room temperature. The anti-phosphotyrosine mouse monoclonal antibody 4G10 was biotynilated with Sulfo-NHS®-Biotin according to the suppliers protocol (Pierce, Rockford, Ill., USA) and purified by Mirco Bio-Spin 6 Chromatograpy Columns (BIO RAD Laboratories, Inc., Hercules, Calif., USA) using PBS as diluent. Plates were washed 5 times with PBS-0.05% Tween®20. For biding to biotin Alkaline Phosphatase Conjugated Strepavidin SA110 (Millipore, Billerica, Mass., USA) (1:4000) was used in PBS-0.05% Tween20+10% FBS (100 μl/well) and incubated for 30 min at room temperature. Plates were washed 5 times with PBS-0.05% Tween20. For fluorimetric detection of alkaline phosphatase AttoPhos Substrate Set (Roche diagnostics GmbH, Mannheim, Germany) was used (100 μl/well). The fluorimetric signal was quantified after 90 min at 430/560 nm wavelength using a TECAN Ultra Evolution plate reader (Tecan Deutschland GmbH, Crailsheim, Germany).

[4] = system: Hs578T; assay: Matrigel outgrowth assay/branching assay; assay type: cell-based; settings: Homo sapiens, Hs-578T; HS578T cell line; Table Ib; read-out: Total branching inhibition in Matrigel HS578T
Procedure, shortened: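 Cells (5000/well) were seeded onto polymerized 3 mg/ml Matrigel with compound at 3.125, 1.56 or 0.78 μM versus DMSO. Branching was imaged by inverted microscopy (5× objective) at 48, 72 and 96 h. Only concentrations giving total branching inhibition scored positive.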

Compound | IC50 [1] [µM] | IC50 [2] [µM] | IC50 [3] [µM] | IC50 [4] [µM] | melting point [°C]
COc1cc2c(Oc3ccc(NS(=O)(=O)c4cccs4)cc3F)ccnc2cc1OCCCN(C)C [Example 186, Thiophene-2-sulfonic acid {4-[7-(3-dimethylamino-propoxy)-6-methoxy-quinolin-4-yloxy]-3-fluoro-phenyl}-amide] | ≤ 12.5 | ≤ 12.5 | < 0.5 | 10 to 25 | 186 to 188
COc1cc2c(Oc3ccc(NS(=O)(=O)c4ccccc4C(F)(F)F)cc3OC)ccnc2cc1OCCCN1CCC(C)CC1 [Example 208, N-(3-Methoxy-4-{6-methoxy-7-[3-(4-methyl-piperidin-1-yl)-propoxy]-quinolin-4-yloxy}-phenyl)-2-trifluoromethyl-benzenesulfonamide] | ≤ 12.5 | 12.5 to 50 | < 0.5 | 10 to 25 | 216 to 218
COc1cc2c(Oc3cc(NS(=O)(=O)c4cc(Cl)ccc4Cl)ccc3F)ccnc2cc1OCCCN1CCC(C)CC1 [Example 191, 2,5-Dichloro-N-(4-fluoro-3-{6-methoxy-7-[3-(4-methyl-piperidin-1-yl)-propoxy]-quinolin-4-yloxy}-phenyl)-benzenesulfonamide] | ≤ 12.5 | ≤ 12.5 | 0.5 to 3 | 10 to 25 | 127 to 130
COc1cc2c(Oc3ccc(NS(=O)(=O)c4ccccc4C)cc3F)ccnc2cc1OCCCN1CCCC(C)C1 (stereo not shown) [Example 44, N-(3-Fluoro-4-{6-methoxy-7-[3-(3-methyl-piperidin-1-yl)-propoxy]-quinolin-4-yloxy}-phenyl)-2-methyl-benzenesulfonamide] | ≤ 12.5 | ≤ 12.5 | < 0.5 | ≤ 10 | 99 to 100
COc1cc2c(Oc3ccc(NS(=O)(=O)c4cc(Cl)cc(Cl)c4OC)cc3F)ccnc2cc1OCCCN1CCOCC1 [Example 76, 3,5-Dichloro-N-{3-fluoro-4-[6-methoxy-7-(3-morpholin-4-yl-propoxy)-quinolin-4-yloxy]-phenyl}-2-methoxy-benzenesulfonamide] | ≤ 12.5 | 12.5 to 50 | < 0.5 | 10 to 25 | 189 to 191
COc1cc2c(Oc3ccc(NS(=O)(=O)c4c(F)cccc4F)cc3F)ccnc2cc1OCCCN1CCCCC1C (stereo not shown) [Example 152, 2,6-Difluoro-N-(3-fluoro-4-{6-methoxy-7-[3-(2-methyl-piperidin-1-yl)-propoxy]-quinolin-4-yloxy}-phenyl)-benzenesulfonamide] | ≤ 12.5 | ≤ 12.5 | < 0.5 | ≤ 10 | 132 to 134
COc1cc2c(Oc3ccc(NS(=O)(=O)c4cccc(C(F)(F)F)c4)cc3F)ccnc2cc1OCCCN1CCCCC1 [Example 5, N-{3-Fluoro-4-[6-methoxy-7-(3-piperidin-1-yl-propoxy)-quinolin-4-yloxy]-phenyl}-3-trifluoromethyl-benzenesulfonamide] | ≤ 12.5 | 12.5 to 50 | < 0.5 | 10 to 25 | 123 to 126
COc1cc2c(Oc3ccc(NS(=O)(=O)c4c(F)cccc4F)cc3Cl)ccnc2cc1OCCCN1CCN(C)CC1 [Example 118, N-(3-Chloro-4-{6-methoxy-7-[3-(4-methyl-piperazin-1-yl)-propoxy]-quinolin-4-yloxy}-phenyl)-2,6-difluoro-benzenesulfonamide] | – | – | < 0.5 | – | 122 to 124
COc1cc2c(Oc3ccc(NS(=O)(=O)c4cc(F)ccc4F)cc3F)ccnc2cc1OCCCNC(=O)OC(C)(C)C [Example 121, (3-{4-[4-(2,5-Difluoro-benzenesulfonylamino)-2-fluoro-phenoxy]-6-methoxy-quinolin-7-yloxy}-propyl)-carbamic acid tert-butyl ester] | 12.5 to 50 | 12.5 to 50 | – | 10 to 25 | 115 to 118
COc1cc2c(Oc3cc(NS(=O)(=O)c4ccccc4C(F)(F)F)ccc3F)ccnc2cc1OCCCN1CCC(C)CC1 [Example 189, N-(4-Fluoro-3-{6-methoxy-7-[3-(4-methyl-piperidin-1-yl)-propoxy]-quinolin-4-yloxy}-phenyl)-2-trifluoromethyl-benzenesulfonamide] | 12.5 to 50 | 12.5 to 50 | – | 10 to 25 | 175 to 177
COc1ccc2nccc(Oc3ccc(NS(=O)(=O)c4cc(Cl)ccc4Cl)cc3F)c2c1 [Example 203, 2,5-Dichloro-N-[3-fluoro-4-(6-methoxy-quinolin-4-yloxy)-phenyl]-benzenesulfonamide] | ≤ 12.5 | ≤ 12.5 | – | 10 to 25 | 253 to 255
COc1cc2c(Oc3cccc(NS(=O)(=O)c4ccc(Cl)s4)c3)ccnc2cc1OCCCN1CCN(C)CC1 [Example 130, 5-Chloro-thiophene-2-sulfonic acid (3-{6-methoxy-7-[3-(4-methyl-piperazin-1-yl)-propoxy]-quinolin-4-yloxy}-phenyl)-amide] | ≤ 12.5 | 12.5 to 50 | – | ≤ 10 | 162 to 163
COc1cc2c(Oc3cccc(NS(=O)(=O)c4ccccc4OC(F)(F)F)c3)ccnc2cc1OCCCN1CCN(C)CC1 [Example 126, N-(3-{6-Methoxy-7-[3-(4-methyl-piperazin-1-yl)-propoxy]-quinolin-4-yloxy}-phenyl)-2-trifluoromethoxy-benzenesulfonamide] | ≤ 12.5 | ≤ 12.5 | – | 10 to 25 | 164 to 166
CCn1cc(S(=O)(=O)Nc2cccc(Oc3ccnc4cc(OCCCN5CCN(C)CC5)c(OC)cc34)c2)cn1 [Example 140, 1-Ethyl-1H-pyrazole-4-sulfonic acid (3-{6-methoxy-7-[3-(4-methyl-piperazin-1-yl)-propoxy]-quinolin-4-yloxy}-phenyl)-amide] | 12.5 to 50 | 12.5 to 50 | – | 10 to 25 | 87 to 90
